Literature values in US8715726B2 (Eurofarma Laboratories S.A., priority 2007, dated 2014).

SMILES: COc1cccc(C2(O)CCCCC2CN(C)C)c1 (stereo not drawn) [Tramadol, 2-((dimethylamino)methyl)-1-(m-methoxyphenyl)-cyclohexanol]
- metabolism (in vivo): extensively metabolised in the liver
- dose excreted in the form of metabolites (oral administration): 60%
- dose excreted in the urine not having been metabolised (oral administration): Approximately 30%
